Active and inactive are the calls of the source. No cut-off for these calls is given here.
Legend:
[1] = biological target: T1, Heat shock protein HSP90 (Homo sapiens) (UniProt P07900+P08238); assay: Inhibition of HSP90 in human H1299 cells assessed as suppression of HIF-1alpha at 100 nM preincubated for 72 hrs followed by incubation under hypoxic condition for 12 hrs by Western blot method relative to control; format: cell-based
[2] = Cytotoxicity against human H1299 cells assessed as decrease in cell viability at 10 uM by MTT assay relative to control; format: functional, NCI-H1299
NCI-H1299 = assay: Cytotoxicity against human H1299 cells assessed as decrease in cell viability by MTT assay; format: functional, cell-based
[3] = biological target: T1, Heat shock protein HSP90 (Homo sapiens); assay: Inhibition of HSP90 in human H1299 cells assessed as suppression of HIF-1alpha at 10 nM preincubated for 72 hrs followed by incubation under hypoxic condition for 12 hrs by Western blot method relative to control; format: cell-based
Homo sapiens [4] = species: Homo sapiens; assay: Antiangiogenic activity in HRMEC assessed as inhibition of VEGF-induced cell proliferation under hypoxic condition by measuring [3H]-thymidine incorporation at 100 nM preincubated for 24 hrs followed by [3H]-thymidine addition measured after 6 hrs by liquid scintillation counter; format: functional
Homo sapiens [5] = species: Homo sapiens; assay: Antiangiogenic activity in HRMEC assessed as inhibition of VEGF-induced cell migration under hypoxic condition at 100 nM after 4 hrs by hematoxylin and eosin staining-based phase-contrast microscopy; format: functional
[6] = biological target: T1, Heat shock protein HSP90 (Homo sapiens); assay: Inhibition of HSP90 in human H1299 cells assessed as suppression of HIF-1alpha preincubated for 72 hrs followed by incubation under hypoxic condition for 12 hrs by Western blot method; format: cell-based

SMILES | inhibition [1] | other results
CCC(=O)OC(c1ccc2c(c1OC)C=CC(C)(C)O2)c1ccnc2cc(OC)c(OC)cc12 (centres undefined) | 96.4% | 
COc1ccc(CC(=O)c2ccc3c(c2OC)C=CC(C)(C)O3)cc1OC | 85.3% | 
COc1cc2nccc(C(SC(C)=O)c3ccc4c(c3OC)C=CC(C)(C)O4)c2cc1OC (centres undefined) | 59.3% | Activity [2]: <50%; Activity (NCI-H1299): Dose-dependent effect; inhibition [3]: 74%
COc1cc2nccc(C(OC(=O)C3CC3)c3ccc4ncccc4c3)c2cc1OC (centres undefined) | 115% | 
COc1cc2occ(C(OC(C)=O)c3ccc4c(c3OC)C=CC(C)(C)O4)c2cc1OC (centres undefined) | 81% | 
COc1cc2cc(/C(=N/O)c3ccc4c(c3OC)C=CC(C)(C)O4)oc2cc1OC | 70.6% | 
COc1cc2ncnc(C(OC(=O)C3CC3)c3ccc4c(c3OC)C=CC(C)(C)O4)c2cc1OC (centres undefined) | 71.9% | 
COc1cc2cc(/C(=N\O)c3ccc4c(c3OC)C=CC(C)(C)O4)oc2cc1OC | 117% | 
COc1cc2ncnc(C(OC(C)=O)c3ccc4c(c3OC)C=CC(C)(C)O4)c2cc1OC (centres undefined) | 88.6% | 
COc1cc2ccc(C(OC(C)=O)c3ccc4c(c3OC)C=CC(C)(C)O4)nc2cc1OC (centres undefined) | 73% | 
COc1cc2cc(C(OC(C)=O)c3ccc4ncccc4c3)oc2cc1OC (centres undefined) | 56% | inhibition [3]: 88%
COc1cc2nccc(C(N)c3ccc4c(c3OC)C=CC(C)(C)O4)c2cc1OC (centres undefined) | 68.9% | 
CO/N=C(\c1cc2cc(OC)c(OC)cc2o1)c1ccc2c(c1OC)C=CC(C)(C)O2 | 65.6% | 
CO/N=C(/c1cc2cc(OC)c(OC)cc2o1)c1ccc2c(c1OC)C=CC(C)(C)O2 | 66.5% | inhibition [3]: 76.9%
CCCC(=O)OC(c1ccc2c(c1OC)C=CC(C)(C)O2)c1ccnc2cc(OC)c(OC)cc12 (centres undefined) | 90% | 
COc1cc2nccc(C(NC(=O)C3CC3)c3ccc4c(c3OC)C=CC(C)(C)O4)c2cc1OC (centres undefined) | 85.5% | 
COc1cc2nccc(C(O)c3ccc4c(ccn4C)c3)c2cc1OC (centres undefined) | 102% | 
COc1cc2c(cc1OC)[C@@H]1C(=O)c3ccc4c(c3O[C@@H]1CO2)C=CC(C)(C)O4 | 64% | inhibition (Homo sapiens [4]): Active; inhibition [3]: 94%; inhibition (Homo sapiens [5]): Active
COc1cc2cc(C(O)c3ccc4ncccc4c3)oc2cc1OC (centres undefined) | 102% | 
CC(C)c1cc(-c2n[nH]c(=O)n2-c2ccc3c(ccn3C)c2)c(O)cc1O |  | inhibition (Homo sapiens [4]): Active; inhibition (Homo sapiens [5]): Active
COc1cc2nccc(C(OC(=O)C3CC3)c3ccc4c(ccn4C)c3)c2cc1OC (centres undefined) | 85% | 
COc1cc2ccc(C(OC(=O)C3CC3)c3ccc4c(c3OC)C=CC(C)(C)O4)nc2cc1OC (centres undefined) | 71% | 
COc1cc2nccc(C(=O)c3ccc4c(ccn4C)c3)c2cc1OC | 86% | 
COc1cc2nccc(C(=O)c3ccc4c(c3OC)C=CC(C)(C)O4)c2cc1OC | 70.5% | 
COc1cc2nccc(C(NC(C)=O)c3ccc4c(c3OC)C=CC(C)(C)O4)c2cc1OC (centres undefined) | 72.9% | 
COc1cc2nccc(/C(=N\O)c3ccc4c(c3OC)C=CC(C)(C)O4)c2cc1OC | 64% | 
COc1cc2nccc(C(OC(=O)C3CC3)c3ccc4c(c3OC)C=CC(C)(C)O4)c2cc1OC (centres undefined) | 53.9% | Activity [2]: <50%; inhibition (Homo sapiens [4]): Active; Activity (NCI-H1299): Dose-dependent effect; inhibition [3]: 63.3%; inhibition (Homo sapiens [5]): Active; inhibition [6]: Dose-dependent effect

More lines, main results first:

inhibition [1] | SMILES | other results
40.6% | COc1cc2cc(C(=O)c3ccc4ncccc4c3)oc2cc1OC | 
97.2% | COc1cc2nccc(C(OC(C)=O)c3ccc4c(ccn4C)c3)c2cc1OC (centres undefined) | 
81.2% | COc1cc2nccc(C(OC(N)=O)c3ccc4c(c3OC)C=CC(C)(C)O4)c2cc1OC (centres undefined) | 
92.4% | COc1cc2occ(C(=O)c3ccc4c(c3OC)C=CC(C)(C)O4)c2cc1OC | inhibition [3]: 105%
54.1% | COc1cc2cc(C(=O)c3ccc4c(c3OC)C=CC(C)(C)O4)oc2cc1OC | 
71.5% | COc1cc2nccc(C(O)c3ccc4c(c3OC)C=CC(C)(C)O4)c2cc1OC (centres undefined) | 
115% | COc1cc2cc(C(OC(=O)C3CC3)c3ccc4ncccc4c3)oc2cc1OC (centres undefined) | 
62.2% | COc1cc2nccc(C(OC(C)=O)c3ccc4c(c3OC)C=CC(C)(C)O4)c2cc1OC (centres undefined) | inhibition [3]: 95.4%
82.7% | COc1cc2nccc(C(OC(C)=O)c3ccc4ncccc4c3)c2cc1OC (centres undefined) | 
86% | COc1cc2ccc(C(O)c3ccc4c(c3OC)C=CC(C)(C)O4)nc2cc1OC (centres undefined) | 
67.4% | COc1cc2nccc(C(OC(C)=O)c3ccc4ncccc4c3OC)c2cc1OC (centres undefined) | 
80.5% | COc1cc2nccc(C(OC(=O)C3CC3)c3ccc4ncccc4c3OC)c2cc1OC (centres undefined) | 
76% | COc1cc2ccc(C(=O)c3ccc4c(c3OC)C=CC(C)(C)O4)nc2cc1OC | 
72.2% | COc1cc2cc(C(OC(C)=O)c3ccc4c(c3OC)C=CC(C)(C)O4)oc2cc1OC (centres undefined) | 
54.2% | CO/N=C(/c1ccc2c(c1OC)C=CC(C)(C)O2)c1ccnc2cc(OC)c(OC)cc12 | 

Source: ChEMBL document CHEMBL3860097, “Synthesis and biological evaluation of C-ring truncated deguelin derivatives as heat shock protein 90 (HSP90) inhibitors” (2016)
